The text below walks through data of ChEMBL document CHEMBL1201862, “PubChem BioAssay data set” (2004).

Some test systems named below: SNB-19; SW-620; SN12C; A498; OVCAR-5; OVCAR-4; SF-539; SF-295; MDA-MB-231; SNB-75; CCRF-CEM; ACHN; K562; RPMI-8226; U-251; 786-0; EKVX; NCI-H460; HCT-116; Hs-578T.
Holding throughout (assay): NCI-60 cell line screen, 48 h

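Exposure lasted 48 hours, with cells grown in 96-well plates and compounds tested at five concentrations. GI50 is the concentration that inhibits growth by half.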 Calls of active or inactive are those of the source. No stated cut-off is given here; in the data, active = GI50 up to about 1.1 µM and inactive = higher.

On to `O=c1[nH]c(=O)c2ncn(-c3ccc([N+](=O)[O-])cn3)c2[nH]1`, for which the GI50 in the assay with SNB-19, with SW-620, in the assay with SN12C, in the assay on A498, in the assay with OVCAR-5 and in the assay on OVCAR-4 was > 100 µM (inactive) throughout. The GI50 in the assay with SF-539, in the assay with SF-295, in the assay on MDA-MB-231, in the assay with SNB-75, in the assay on CCRF-CEM and in the assay on ACHN was > 100 µM (inactive) throughout. Also, the GI50 in the assay on K562, in the assay on RPMI-8226, in the assay on U-251, with 786-0, in the assay with EKVX and with NCI-H460 was > 100 µM (inactive) each time. The GI50 with HCT-116 was > 100 µM (inactive).
Take `CCOC(=O)c1cn2c(n1)sc1cccc(C)c12`: the GI50 in the assay with SNB-19, with OVCAR-5, in the assay on SF-539, in the assay with SF-295, in the assay on MDA-MB-231 and with SNB-75 was > 100 µM (inactive) in each case. Further, the GI50 in the assay with ACHN was > 100 µM (inactive); with 786-0, > 100 µM (inactive); in the assay with EKVX it was 52.6 µM (inactive); in the assay on Hs-578T, 21.7 µM (inactive); with NCI-H460, 71.8 µM (inactive); with HCT-116 it was > 100 µM (inactive).
In the case of `CC(C)CC(NC(=O)C(CI)Cc1ccccc1)C(=O)Nc1ccccc1` (stereo unspecified), the GI50 was > 100 µM (inactive) in the assay with SNB-19; > 100 µM (inactive) in the assay with SW-620; > 100 µM (inactive) in the assay on SN12C; > 100 µM (inactive) with A498; > 100 µM (inactive) in the assay on OVCAR-5; 50 µM (inactive) in the assay with OVCAR-4. The GI50 in the assay on SF-539, in the assay with SF-295, in the assay on MDA-MB-231, in the assay with SNB-75, in the assay with CCRF-CEM and in the assay with ACHN was > 100 µM (inactive) each time. Moreover, the GI50 with K562, in the assay with RPMI-8226, in the assay with U-251, in the assay with 786-0, in the assay with EKVX and with NCI-H460 was > 100 µM (inactive) in each case. The GI50 in the assay on HCT-116 was > 100 µM (inactive).
On to `COc1ccc2c(c1)CC[C@@H]1[C@@H]2CC[C@]2(C)C(=O)/C(=C/c3ccncc3)C[C@@H]12`, for which the GI50 in the assay on SNB-19 was 44.3 µM (inactive); in the assay with SW-620 it was 31.2 µM (inactive); in the assay with SN12C, 55.6 µM (inactive); in the assay on A498 it was 27.3 µM (inactive); in the assay with OVCAR-5, 48.9 µM (inactive); in the assay with OVCAR-4, 48.2 µM (inactive). In addition, the GI50 in the assay on SF-539 was 25.5 µM (inactive); in the assay on SF-295, 22.4 µM (inactive); in the assay on MDA-MB-231, 64.7 µM (inactive); in the assay with SNB-75 it was 32.1 µM (inactive); in the assay with CCRF-CEM, > 100 µM (inactive); in the assay with ACHN, 42.5 µM (inactive). Also, the GI50 in the assay on K562 was > 100 µM (inactive); in the assay on RPMI-8226 it was 93.8 µM (inactive); in the assay on U-251, 54.3 µM (inactive); in the assay with 786-0 it was 32.3 µM (inactive); with EKVX it was 53.6 µM (inactive); with NCI-H460, 27.8 µM (inactive). Moreover, the GI50 in the assay on HCT-116 is 28.2 µM (inactive).
`O=C(O)c1ccccc1/C=C1/Cc2ccc3c(c2C1=O)CCC3`: the GI50 in the assay on SNB-19 was 54.7 µM (inactive); in the assay with SW-620, 58.9 µM (inactive); in the assay on SN12C it was 51.8 µM (inactive); with A498, 38.3 µM (inactive); in the assay with OVCAR-5 it was 20.9 µM (inactive); in the assay on OVCAR-4, 29.8 µM (inactive). The GI50 was 23.9 µM (inactive) in the assay on SF-539; 42.4 µM (inactive) in the assay on SF-295; 39.4 µM (inactive) with SNB-75; 38.9 µM (inactive) in the assay with CCRF-CEM; 37.7 µM (inactive) in the assay on ACHN; 33.3 µM (inactive) in the assay with K562. For the same compound, the GI50 in the assay with RPMI-8226 was 22.4 µM (inactive); in the assay with U-251 it was 27.6 µM (inactive); with 786-0 it was 49 µM (inactive); with EKVX, 48.1 µM (inactive); with Hs-578T it was 32.2 µM (inactive); with NCI-H460 it was 45.4 µM (inactive). Besides, the GI50 in the assay with HCT-116 is 30.7 µM (inactive).
Take `CC[C@H](C)C1=C(OC(C)=O)[N@+]2([O-])Oc3ccc(-c4c(OC(C)=O)c(OC(C)=O)c(-c5ccc(OC(C)=O)cc5)c(OC(C)=O)c4OC(C)=O)cc3O[C@]2([C@@H](C)CC)C(=O)N1OC(C)=O`: the GI50 with SNB-19 was 13.7 µM (inactive); in the assay on SW-620, 13 µM (inactive); with SN12C, 17.9 µM (inactive); with A498, 14.1 µM (inactive); with OVCAR-5, 29.2 µM (inactive); with OVCAR-4, 12.2 µM (inactive). For the same compound, the GI50 in the assay with SF-539 was 11.2 µM (inactive); in the assay with SF-295 it was 9.25 µM (inactive); in the assay with MDA-MB-231 it was 23.9 µM (inactive); with SNB-75, 12 µM (inactive); in the assay with CCRF-CEM, 0.294 µM (active); in the assay with ACHN, 15.5 µM (inactive). Besides, the GI50 in the assay on K562 is 14.5 µM (inactive); with RPMI-8226, 9.2 µM (inactive); in the assay with U-251, 16 µM (inactive); with 786-0, 13.6 µM (inactive); with EKVX it was 5.45 µM (inactive); in the assay with NCI-H460 it was 20 µM (inactive). In the assay on HCT-116, the GI50 was 15.2 µM (inactive).
For the compound `COc1cc(C2SCCCCCCCCCCSC(c3ccc(O)c(OC)c3)SCCCCCCCCCCS2)ccc1O` (stereo unspecified), the GI50 in the assay with SNB-19, in the assay on SW-620, in the assay with SN12C, with A498, in the assay with OVCAR-5 and in the assay on OVCAR-4 was > 100 µM (inactive) throughout. Further, the GI50 is > 100 µM (inactive) in the assay with SF-295; > 100 µM (inactive) in the assay on MDA-MB-231; 52.6 µM (inactive) in the assay on SNB-75; < 0.01 µM (active) in the assay with CCRF-CEM; > 100 µM (inactive) in the assay on ACHN; > 100 µM (inactive) in the assay on K562. For the same compound, the GI50 in the assay with RPMI-8226, in the assay with U-251, with 786-0, in the assay with EKVX and in the assay on HCT-116 was > 100 µM (inactive) in each case.
As for `CC(C(=O)N1C(=O)N(C(=O)[C@H](C)C(O)c2ccccc2)[C@H](c2ccccc2)[C@H]1c1ccccc1)[C@@H](O)c1ccccc1` (stereo partly specified), the GI50 in the assay with SNB-19 is 37.2 µM (inactive); in the assay on SW-620 it was 45.2 µM (inactive); in the assay with SN12C it was 38.8 µM (inactive); in the assay with A498, 24.3 µM (inactive); in the assay on OVCAR-5 it was 25.2 µM (inactive); in the assay on OVCAR-4 it was 26.5 µM (inactive). The GI50 is 22.2 µM (inactive) in the assay with SF-539; 29.2 µM (inactive) in the assay on SF-295; 19.5 µM (inactive) with MDA-MB-231; 28 µM (inactive) in the assay on SNB-75; 30.5 µM (inactive) in the assay on ACHN; 17.5 µM (inactive) in the assay with K562. In addition, the GI50 with U-251 was 35.9 µM (inactive); with 786-0, 29.2 µM (inactive); with EKVX, 21.1 µM (inactive); in the assay with NCI-H460 it was 22.4 µM (inactive); in the assay with HCT-116, 34.2 µM (inactive).
